# Results: ChEMBL document CHEMBL1201862, “PubChem BioAssay data set” (2004)
#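 Cultured in 96-well plates, cells were exposed to test compound for 48 hours across five concentrations. Abbreviation: GI50, concentration required for 50% inhibition of growth.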 The source made the active and inactive calls. Cut-off read from the data, not from the text of the source: active = GI50 up to about 1.1 µM and inactive = higher.
# How the values were obtained:
# Experiment in all cases: inhibition of tumour cell growth, NCI panel, 48 h
# A498 = tested on: A498
# CAKI-1 = tested on: CAKI-1
# EKVX = tested on: EKVX
# HCT-15 = tested on: HCT-15
# HL-60 = tested on: HL-60
# HOP-62 = tested on: HOP-62
# IGROV-1 = tested on: IGROV-1
# MOLT-4 = tested on: MOLT-4
# OVCAR-3 = tested on: OVCAR-3
# OVCAR-4 = tested on: OVCAR-4
# OVCAR-8 = tested on: OVCAR-8
# RPMI-8226 = tested on: RPMI-8226
# RXF 393 = tested on: RXF 393
# SF-268 = tested on: SF-268
# SK-MEL-28 = tested on: SK-MEL-28
# SK-OV-3 = tested on: SK-OV-3
# SNB-19 = tested on: SNB-19
# SNB-75 = tested on: SNB-75
# TK-10 = tested on: TK-10
# UO-31 = tested on: UO-31
SMILES,GI50 (A498),GI50 (CAKI-1),GI50 (EKVX),GI50 (HCT-15),GI50 (HL-60),GI50 (HOP-62),GI50 (IGROV-1),GI50 (MOLT-4),GI50 (OVCAR-3),GI50 (OVCAR-4),GI50 (OVCAR-8),GI50 (RPMI-8226),GI50 (RXF 393),GI50 (SF-268),GI50 (SK-MEL-28),GI50 (SK-OV-3),GI50 (SNB-19),GI50 (SNB-75),GI50 (TK-10),GI50 (UO-31)
CC(=O)Nc1ccc(C2=N/C(=C\c3ccc(Cl)c(Cl)c3)C(=O)O2)cc1,> 100 µM (inactive),> 100 µM (inactive),> 100 µM (inactive),> 100 µM,> 100 µM (inactive),> 100 µM (inactive),> 100 µM (inactive),> 100 µM (inactive),> 100 µM (inactive),> 100 µM (inactive),> 100 µM (inactive),> 100 µM (inactive),> 100 µM (inactive),> 100 µM (inactive),> 100 µM (inactive),> 100 µM (inactive),> 100 µM (inactive),64.6 µM (inactive),> 100 µM (inactive),> 100 µM (inactive)
O=C(Nc1ccc([N+](=O)[O-])cc1[N+](=O)[O-])C(=O)C(C(=O)c1ccc2ccccc2c1)C1OC(=O)c2ccccc21 (centres undefined),17.6 µM (inactive),21.7 µM (inactive),15.5 µM (inactive),15.9 µM,12.3 µM (inactive),22.4 µM (inactive),19.8 µM (inactive),2.95 µM (inactive),,12.8 µM (inactive),10 µM (inactive),9.44 µM (inactive),12 µM (inactive),8.89 µM (inactive),20 µM (inactive),13.5 µM (inactive),11.5 µM (inactive),14 µM (inactive),24.1 µM (inactive),14 µM (inactive)
CC(C)(CCCCC(C)(C)NC1=NCCO1)NC1=NCCO1,> 10 µM (inactive),> 10 µM (inactive),> 10 µM (inactive),> 10 µM,> 10 µM (inactive),> 10 µM (inactive),> 10 µM (inactive),> 10 µM (inactive),> 10 µM (inactive),> 10 µM (inactive),> 10 µM (inactive),> 10 µM (inactive),> 10 µM (inactive),> 10 µM (inactive),> 10 µM (inactive),> 10 µM (inactive),> 10 µM (inactive),> 10 µM (inactive),> 10 µM (inactive),> 10 µM (inactive)
